The source of these data is patent US20170234881A1, “METHODS OF DIAGNOSING AND TREATING CANCER” (INSERM ( INSTITUT NATIONAL DE LA SANTÉ ET DE LA RECHERCHE …, priority 2014, published 2017).

One assay deals with TS/A cells. Description: Cell invasion assay (matrigel-coated filters), TS/A. The note with it: concentration-dependent, level reached. Type of assay: cell-based, mouse. As to the method: (§1) FIG. 2. OCDO is a tumor promoter in vitro and in vivo and its inhibition contributes to the anti-tumor effects of Tam and DDA. (A, B) Histograms representing the effect of OCDO or 17β-estrogen (E2) on MCF7 (A) and TS/A (B) cell proliferation after 24 h treatment using a colorimetric immunoassay measuring BrDU incorporation in DNA (C, D) Histogram representing the effect of OCDO on MCF7 (C) and TS/A (D) cell invasion. Data are the mean of three separate experiments (±s.e.m), *P<0.05, **P<0.01, ***P<0.001 (Student's t-test). (E, F) Mice were implanted s.c. with MCF7 (E) or TS/A (F) cells and animals (8 per group) were treated s.c. every day starting on the day of implantation with either the solvent vehicle or OCDO (16 μg/kg for MCF7 or 50 μg/kg for TS/A). Animals were monitored for tumour growth twice a week. The data are representative of three independent experiments. The mean tumor volume±s.e.m is shown, *P<0.05, **P<0.01, ***P<0.001 (analysis of variance (ANOVA), Dunnett's post test). (G) Mean (±s.e.m) of Ki67 positive cell number determined from IHC staining of MCF7 tumor sections from (E), n=8, *P<0.05 (Student's t-test) using HistoQuant, Pannoramic Viewer (3DHistech). […]
(§2) Invasion assays were carried out using Bio-Coat migration chambers (BD Falcon) with 8 μm filters previously coated with matrigel. […] The entire membranes were mounted on glass slides, and were counted under a microscope. […]

The next assay concerns E0771 cells. Description: Growth of E0771 tumors implanted s.c. into mice. The format is in vivo. The note with it: mouse E0771 tumors, OCDO 50 μg/kg s.c. As to the method:
as §1, with “The data are representative of three independent experiments. The mean tumor volume±s.e.m is shown, *P<0.05, **P<0.01, ***P<0.001 (analysis of variance (ANOVA), Dunnett's post test).” left out
(§3) Exponentially growing MCF7, ShMCF7, E0771, MDA-MB231, MDA-MB468 and TS/A cells were collected, washed twice in PBS and resuspended in PBS. […] Animals were examined daily, and body weights were measured twice per week. In all the experiments, the tumor volume was determined by direct measurement with a caliper and was calculated using the formula (width^2×length)/2. […]

The next assay relates to shHSD2 MCF7 cells. The assay can be described thus: Invasiveness of shHSD2 MCF7 cells (matrigel-coated filters). Type of assay: cell-based, human. The note with it: OCDO 5 μM for 72 h. The procedure:
(§4) FIG. 7. Knock-down of 11βHSD2 decreases cell proliferation, invasion and survival in MCF7 cells as well as tumor growth and OCDO reverses these effects. shC or shHSD2 MCF7 cells were analyzed as followed: (A) The proliferation of sh-C or shHSD2 cells treated or not with OCDO 5 μM 24 h was measured using quantification of DNA BrDU incorporation as described in FIG. 2A. (B) The proliferation of sh-C or shHSD2 cells treated or not with increasing concentration of cortisone for 24 h was measured as in (A). (C) The invasiveness of sh-C or shHSD2 cells treated or not with OCDO 5 μM for 72 h was assayed using matrigel-coated filters. (D) the formation of colony by sh-C or shHSD2 cells treated or not with OCDO 1 μM was quantified as described in FIG. 6F. […] Animals were monitored for tumor growth twice a week. […] (F) Mean (±s.e.m) of Ki67 positive cell number determined from IHC staining of shC or shHSD2 MCF7 tumor sections from (E), n=8, *P<0.05 (Student's t-test) using HistoQuant, Pannoramic Viewer (3DHistech).
as §2

For a further assay, the system named is sh11HSD2 tumors. The assay can be described thus: Growth of sh11HSD2 MCF7 tumors xenografted in mice. Type of assay: in vivo. The procedure:
as §4, §3

Turning to `CC(C)CCC[C@@H](C)[C@H]1CC[C@H]2[C@@H]3CC(=O)[C@@]4(O)C[C@@H](O)CC[C@]4(C)[C@H]3CC[C@]12C` [OCDO, 6-oxo-cholestan-3β,5α-diol], the “invasiveness compared with the control” value in the assay on TS/A cells is reported as 2.3 fold. The tumor growth result in the assay with E0771 cells is “stimulates the growth”. For the same compound, in the assay with shHSD2 MCF7 cells, the “effect on the inhibition of cell invasion mediated by 11βHSD2 knock-down” value is on record as “reversed the inhibition of cell invasion”. Also, the “effect on growth of sh11HSD2 tumors” value with sh11HSD2 tumors (immunodeficient mice, subcutaneous OCDO 15 μg/kg, 5 days/week) was “reversed the growth inhibition of sh11HSD2 tumors to a level similar to the growth of shC tumors”. Further, the “cell proliferation by KI67 staining of tumors” value in the assay on sh11HSD2 tumors (sh11HSD2 MCF7 tumors, OCDO treatment) is “reversed the growth inhibition of sh11HSD2 tumors”.
